ChEMBL document CHEMBL3232950, “Quinolone-benzylpiperidine derivatives as novel acetylcholinesterase inhibitor and antioxidant hybrids for Alzheimer disease” (Bioorg Med Chem, 2014)

Columns and labels:
Acetylcholinesterase [1] = target: Acetylcholinesterase (Electrophorus electricus, UniProt O42275)
Description: Inhibition of electric eel AChE using acetylthiocholine iodide as substrate preincubated with enzyme for 10 mins prior to substrate challenge measured after 15 mins by Ellman's method

Cholinesterase = Cholinesterase (Equus caballus, UniProt P81908)
Description: Inhibition of BuChE in equine serum using butyrylthiocholine iodide as substrate preincubated with enzyme for 10 mins prior to substrate challenge measured after 15 mins by Ellman's method

[2] = tested on: Radical scavenging activity
Description: Antioxidant activity assessed as DPPH radical scavenging activity after 2 hrs by absorbance analysis

[3] = Antioxidant activity assessed as superoxide anion radical scavenging activity at 100 uM by non-enzymatic phenazine methosulfate NADH-system; assay type: functional
Acetylcholinesterase [4] = target: Acetylcholinesterase (Homo sapiens, UniProt P22303); assay: Inhibition of AChE in human erythrocytes using acetylthiocholine iodide as substrate preincubated with enzyme for 10 mins prior to substrate challenge measured after 15 mins by Ellman's method; assay type: cell-based
Sequence of Acetylcholinesterase (Homo sapiens, UniProt P22303) (P22303 whole entry): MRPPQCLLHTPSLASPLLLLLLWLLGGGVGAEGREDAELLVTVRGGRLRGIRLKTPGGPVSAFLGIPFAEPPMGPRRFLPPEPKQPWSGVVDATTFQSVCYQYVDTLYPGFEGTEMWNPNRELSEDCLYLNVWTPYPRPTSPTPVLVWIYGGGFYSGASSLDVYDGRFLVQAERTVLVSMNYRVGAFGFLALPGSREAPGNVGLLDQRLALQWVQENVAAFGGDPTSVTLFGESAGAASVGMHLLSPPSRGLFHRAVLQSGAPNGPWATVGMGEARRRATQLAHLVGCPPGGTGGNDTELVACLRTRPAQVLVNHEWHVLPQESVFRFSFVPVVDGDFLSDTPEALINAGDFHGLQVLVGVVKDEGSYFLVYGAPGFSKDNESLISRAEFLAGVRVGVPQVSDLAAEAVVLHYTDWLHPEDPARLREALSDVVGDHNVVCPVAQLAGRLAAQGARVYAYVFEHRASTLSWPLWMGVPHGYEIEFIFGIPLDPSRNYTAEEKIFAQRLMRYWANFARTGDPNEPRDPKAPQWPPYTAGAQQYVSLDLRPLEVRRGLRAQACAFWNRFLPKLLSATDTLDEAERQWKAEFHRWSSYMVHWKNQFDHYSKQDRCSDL

Sequence of Cholinesterase (P81908 whole entry): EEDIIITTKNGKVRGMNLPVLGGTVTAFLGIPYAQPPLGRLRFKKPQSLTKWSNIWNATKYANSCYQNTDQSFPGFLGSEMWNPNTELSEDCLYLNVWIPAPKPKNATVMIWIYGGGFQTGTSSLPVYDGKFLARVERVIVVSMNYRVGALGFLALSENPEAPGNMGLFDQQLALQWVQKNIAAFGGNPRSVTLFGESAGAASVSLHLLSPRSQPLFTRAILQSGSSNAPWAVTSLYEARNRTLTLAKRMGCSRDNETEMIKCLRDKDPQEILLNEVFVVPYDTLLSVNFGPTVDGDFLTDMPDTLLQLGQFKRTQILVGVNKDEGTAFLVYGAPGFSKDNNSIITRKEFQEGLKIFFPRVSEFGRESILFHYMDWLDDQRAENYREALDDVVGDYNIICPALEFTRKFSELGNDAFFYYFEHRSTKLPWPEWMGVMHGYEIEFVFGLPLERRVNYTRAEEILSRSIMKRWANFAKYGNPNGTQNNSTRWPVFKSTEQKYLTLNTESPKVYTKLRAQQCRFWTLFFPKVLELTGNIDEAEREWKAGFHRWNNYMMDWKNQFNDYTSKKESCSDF
Sequence of Acetylcholinesterase (Electrophorus electricus, UniProt O42275) (O42275 whole entry): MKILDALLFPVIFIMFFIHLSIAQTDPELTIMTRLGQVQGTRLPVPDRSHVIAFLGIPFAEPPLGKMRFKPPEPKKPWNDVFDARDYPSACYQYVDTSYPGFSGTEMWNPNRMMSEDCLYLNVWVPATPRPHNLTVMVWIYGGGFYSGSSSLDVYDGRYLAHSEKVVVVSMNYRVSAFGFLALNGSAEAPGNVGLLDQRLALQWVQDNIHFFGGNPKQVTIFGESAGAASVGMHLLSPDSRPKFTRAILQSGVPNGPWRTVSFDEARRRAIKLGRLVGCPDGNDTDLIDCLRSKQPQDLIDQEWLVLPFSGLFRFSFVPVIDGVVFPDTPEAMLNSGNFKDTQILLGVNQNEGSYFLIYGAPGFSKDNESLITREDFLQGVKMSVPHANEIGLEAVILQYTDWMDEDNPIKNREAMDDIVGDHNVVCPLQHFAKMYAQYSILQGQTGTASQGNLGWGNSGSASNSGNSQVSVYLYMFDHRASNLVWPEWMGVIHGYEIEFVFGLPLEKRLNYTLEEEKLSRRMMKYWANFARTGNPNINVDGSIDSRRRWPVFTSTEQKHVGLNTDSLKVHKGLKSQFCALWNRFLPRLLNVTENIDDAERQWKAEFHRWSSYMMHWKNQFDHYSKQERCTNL

Compound	IC50 (Acetylcholinesterase [1]) [nM]	IC50 (Cholinesterase) [nM]	EC50 [2] [nM]	Activity [3] [%]	IC50 (Acetylcholinesterase [4]) [nM]
O=C(NCC1CCN(Cc2ccccc2)CC1)c1c(O)c2ccccc2[nH]c1=O	1410	6020			
O=c1c(O)c(-c2ccc(O)c(O)c2)oc2cc(O)cc(O)c12 [QUERCETIN]			10300		
Cc1c(C(=O)NCC2CCN(Cc3ccccc3)CC2)c(=O)[nH]c2ccccc12	470	> 10000			
COc1cc2c(O)c(C(=O)NCC3CCN(Cc4ccccc4)CC3)c(=O)n(Cc3ccccc3)c2cc1OC	270	> 60000			
COc1cc2c(O)c(C(=O)NCC3CCN(Cc4ccccc4)CC3)c(=O)n(C)c2cc1OC	2930	> 10000			
Cn1c(=O)c(C(=O)NCC2CCN(Cc3ccccc3)CC2)c(N)c2ccccc21	380	1140			
O=C(NCC1CCN(Cc2ccccc2)CC1)c1c(O)c2cc(O)c(O)cc2n(Cc2ccccc2)c1=O	> 10000	> 10000	20800		
COc1cc(/C=C/C(=O)CC(=O)/C=C/c2ccc(O)c(OC)c2)ccc1O [CURCUMIN]			26600		
Cn1c(=O)c(C(=O)NCC2CCN(Cc3ccccc3)CC2)c(O)c2ccccc21	370	4260			
Cn1c(=O)c(C(=O)NCC2CCN(Cc3ccccc3)CC2)c(O)c2cc(O)c(O)cc21	2020	> 10000	21700	40	
COc1cc2[nH]c(=O)c(C(=O)NCC3CCN(Cc4ccccc4)CC3)c(O)c2cc1OC	110	> 60000			230
O=C(NCC1CCN(Cc2ccccc2)CC1)c1c(O)c2ccccc2n(Cc2ccccc2)c1=O	490	> 10000			
Cn1c(=O)c(C(=O)NC2CCN(Cc3ccccc3)CC2)c(O)c2ccccc21	1520	> 10000			
O=C(NCC1CCN(Cc2ccccc2)CC1)c1c(O)c2cc(O)c(O)cc2[nH]c1=O	480	> 10000	12200		980
COc1cc(Cn2c(=O)c(C(=O)NCC3CCN(Cc4ccccc4)CC3)c(O)c3ccccc32)cc(OC)c1O	560	330	90500	33	
Cc1c(C(=O)NC2CCN(Cc3ccccc3)CC2)c(=O)[nH]c2ccccc12	2460	> 10000			
O=C(NC1CCN(Cc2ccccc2)CC1)c1c(O)c2ccccc2n(Cc2ccccc2)c1=O	390	> 10000			
O=C(NCC1CCN(Cc2ccccc2)CC1)c1c(O)c2ccccc2n(Cc2cc(O)c(O)c(O)c2)c1=O	3890	> 10000	107000		
O=C(NC1CCN(Cc2ccccc2)CC1)c1c(-c2ccccc2)c2ccccc2[nH]c1=O	> 10000	> 10000			
O=C(NC1CCN(Cc2ccccc2)CC1)c1c(O)c2ccccc2[nH]c1=O	2270	> 10000			
